Test results reported in ChEMBL document CHEMBL5233274, “Current Landscape and Future Perspective of Oxazolidinone Scaffolds Containing Antibacterial Drugs” (J Med Chem, 2021).
Converted amounts (≈) assume the structure as drawn.

Legend:
[1] = test system: Bacillus subtilis; assay: Antimicrobial activity against Bacillus subtilis assessed as inhibition zone at 200 ug/ml incubated for 24 hrs by disk diffusion method; format: functional; conditions: read-out: IZ
[2] = test system: Fusarium oxysporum; assay: Antimicrobial activity against Fusarium oxysporum assessed as inhibition zone at 200 ug/ml incubated for 24 hrs by disk diffusion method; format: functional; conditions: read-out: IZ
[3] = test system: Escherichia coli; assay: Antimicrobial activity against Escherichia coli assessed as inhibition zone at 200 ug/ml incubated for 24 hrs by disk diffusion method; format: functional; conditions: read-out: IZ
[4] = test system: Enterococcus; assay: Antibacterial activity against linezolid and vancomycin-resistant Enterococcus assessed as inhibition of bacterial growth; format: functional
[5] = test system: Staphylococcus aureus; assay: Antibacterial activity against linezolid and methicillin-resistant Staphylococcus aureus assessed as inhibition of bacterial growth; format: functional
[6] = test system: Escherichia coli; assay: Antibacterial activity against Escherichia coli assessed as inhibition of bacterial growth incubated for 18 hrs by CLSI protocol based method; format: functional
[7] = test system: Pseudomonas aeruginosa; assay: Antibacterial activity against Pseudomonas aeruginosa assessed as inhibition of bacterial growth incubated for 18 hrs by CLSI protocol based method; format: functional
[8] = test system: Bacillus subtilis; assay: Antibacterial activity against Bacillus subtilis assessed as zone of inhibition at 100 ug/ml; format: functional; conditions: read-out: IZ
[9] = test system: HT-29; assay: Cytotoxicity against human HT-29 cells assessed as reduction in cell viability by tryphan blue exclusion dye method; format: functional, cell-based
[10] = test system: MCF7; assay: Cytotoxicity against human MCF7 cells assessed as reduction in cell viability by tryphan blue exclusion dye method; format: functional, cell-based
[11] = test system: Klebsiella pneumoniae; assay: Antibacterial activity against Klebsiella pneumoniae NCIM 5289 assessed as inhibition of bacterial growth incubated for 24 hrs by serial dilution method; format: functional
[12] = test system: Escherichia coli; assay: Antibacterial activity against Escherichia coli NCIM 2065 assessed as inhibition of bacterial growth incubated for 24 hrs by serial dilution method; format: functional
[13] = test system: Pseudomonas aeruginosa; assay: Antibacterial activity against Pseudomonas aeruginosa NCIM 5210 assessed as inhibition of bacterial growth incubated for 24 hrs by serial dilution method; format: functional
[14] = test system: Aspergillus niger; assay: Antifungal activity against Aspergillus niger NCIM 1317 assessed as inhibition of fungal growth incubated for 48 hrs by serial dilution method; format: functional
[15] = test system: Enterococcus faecalis; assay: Antibacterial activity against Streptococcus faecalis NCIM 2080 assessed as inhibition of bacterial growth incubated for 24 hrs by serial dilution method; format: functional
[16] = test system: Bacillus subtilis; assay: Antibacterial activity against Bacillus subtilis NCIM 2097 assessed as inhibition of bacterial growth incubated for 24 hrs by serial broth dilution method; format: functional
[17] = test system: Candida albicans; assay: Antifungal activity against Candida albicans NCIM 3628 assessed as inhibition of fungal growth incubated for 48 hrs by serial dilution method; format: functional
[18] = test system: Staphylococcus aureus; assay: Antibacterial activity against Staphylococcus aureus NCIM 5257 assessed as inhibition of bacterial growth incubated for 24 hrs by serial broth dilution method; format: functional
[19] = test system: Escherichia coli; assay: Antibacterial activity against Escherichia coli assessed as zone of inhibition at 100 ug/ml; format: functional; conditions: read-out: IZ

## COc1ccc(/C=C2\OC3(COC(=O)N3)N(CCCNc3ccnc4cc(Cl)ccc34)C2=O)cc1 (configuration not stated)
[1]
  zone of inhibition at 200 µg/mL: 10 mm
[2]
  zone of inhibition at 200 µg/mL: 9 mm
[3]
  zone of inhibition at 200 µg/mL: 11 mm

## O=C(CCl)NC[C@H]1CN(c2ccc(N3CCOCC3)c(F)c2)C(=O)O1
[4]
  MIC: 0.13 µg/mL (≈ 0.35 µM)
[5]
  MIC: 0.13 µg/mL (≈ 0.35 µM)

## CS(=O)(=O)CCCOc1ccc(C#Cc2ccc(N3C[C@@H](C(=O)NO)OC3=O)cc2)cc1
[6]
  MIC: 6.25 µg/mL (≈ 13.6 µM)
[7]
  MIC: > 10 µg/mL

## CNS(=O)(=O)c1ccc(C#CC#Cc2ccc(N3C[C@@H](C(=O)NO)OC3=O)cc2)cc1
[6]
  MIC: 0.078 µg/mL (≈ 0.177 µM)
[7]
  MIC: > 10 µg/mL

## CCCN1C(=O)C(N2C(=O)OCC2Cc2ccc(/N=C/c3ccccc3)cc2)C1c1ccc(OC)cc1OC (configuration not stated)
[8]
  zone of inhibition at 100 µg/mL: 23 mm

## Nc1ccc(C#CC#Cc2ccc(N3C[C@@H](C(=O)NO)OC3=O)cc2)cc1
[6]
  MIC: 0.02 µg/mL (≈ 0.0553 µM)
[7]
  MIC: > 10 µg/mL

## O=C1NC2(CO1)O/C(=C\c1ccc(Cl)cc1)C(=O)N2CCCNc1ccnc2cc(Cl)ccc12 (configuration not stated)
[9]
  IC50: 32.4 µg/mL (≈ 64.9 µM)
[1]
  zone of inhibition at 200 µg/mL: 14 mm
[2]
  zone of inhibition at 200 µg/mL: 10 mm
[3]
  zone of inhibition at 200 µg/mL: 13 mm
[10]
  IC50: 16.1 µg/mL (≈ 32.2 µM)

## O=C1NC2(CO1)O/C(=C\c1ccc([N+](=O)[O-])cc1)C(=O)N2CCCNc1ccnc2cc(Cl)ccc12 (configuration not stated)
[1]
  zone of inhibition at 200 µg/mL: 14 mm
[2]
  zone of inhibition at 200 µg/mL: 14 mm
[3]
  zone of inhibition at 200 µg/mL: 14 mm

## OC(Cn1cncn1)(Cn1cncn1)c1ccc(F)cc1F [FLUCONAZOLE]
[2]
  zone of inhibition at 200 µg/mL: 23 mm

## O=C(/C=C/c1ccccc1F)c1ccc(-c2ccc(N3C[C@H](CO)OC3=O)cc2)cc1
[11]
  MIC: 3.12 µg/mL (≈ 7.49 µM)
[12]
  MIC: 3.12 µg/mL (≈ 7.49 µM)
[13]
  MIC: 3.12 µg/mL (≈ 7.49 µM)
[14]
  MIC: 12.5 µg/mL (≈ 29.9 µM)
[15]
  MIC: 3.12 µg/mL (≈ 7.49 µM)
[16]
  MIC: 3.12 µg/mL (≈ 7.49 µM)
[17]
  MIC: 12.5 µg/mL (≈ 29.9 µM)
[18]
  MIC: 3.12 µg/mL (≈ 7.49 µM)

## O=C(NC[C@H]1CN(c2ccc(N3CCOCC3)c(F)c2)C(=O)O1)C(Cl)Cl
[4]
  MIC: 0.25 µg/mL (≈ 0.615 µM)
[5]
  MIC: 0.25 µg/mL (≈ 0.615 µM)

## CCCN1C(=O)C(N2C(=O)OCC2Cc2ccc(/N=C/c3ccccc3)cc2)C1c1ccc(Cl)cc1Cl (configuration not stated)
[19]
  zone of inhibition at 100 µg/mL: 24 mm
